Experimental data reported in patent US20240246942A1, “KINASE INHIBITORS FOR THE TREATMENT OF NEURODEGENERATIVE DISEASES” (priority 2020, published 2024).

Key:
Assay in all cases: biochemical
[1] = biological target: T1, panel of 374 wild-type kinases (Homo sapiens, UniProt Q5TCX8); settings: read-out: % Enzyme Activity (relative to DMSO controls), MLK4
T1 construct: purchased Reaction Biology Corporation

[2] = biological target: T2, panel of 374 wild-type kinases (Homo sapiens, UniProt P52564); settings: read-out: % Enzyme Activity (relative to DMSO controls), MKK6
T2 construct: purchased Reaction Biology Corporation
T2 sequence (P52564 1-334): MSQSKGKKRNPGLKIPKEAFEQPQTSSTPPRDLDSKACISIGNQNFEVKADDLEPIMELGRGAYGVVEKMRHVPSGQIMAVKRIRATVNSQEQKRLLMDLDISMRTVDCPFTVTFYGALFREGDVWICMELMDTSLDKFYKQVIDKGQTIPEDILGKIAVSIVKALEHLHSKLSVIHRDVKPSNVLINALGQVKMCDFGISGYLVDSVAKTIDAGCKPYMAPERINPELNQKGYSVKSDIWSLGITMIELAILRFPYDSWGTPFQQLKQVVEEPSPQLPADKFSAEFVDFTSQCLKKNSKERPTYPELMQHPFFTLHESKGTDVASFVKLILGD

[3] = biological target: T3, panel of 374 wild-type kinases (Homo sapiens, UniProt Q96PY6); settings: read-out: % Enzyme Activity (relative to DMSO controls), NEK1
T3 construct: purchased Reaction Biology Corporation
T3 sequence (Q96PY6 1-1258): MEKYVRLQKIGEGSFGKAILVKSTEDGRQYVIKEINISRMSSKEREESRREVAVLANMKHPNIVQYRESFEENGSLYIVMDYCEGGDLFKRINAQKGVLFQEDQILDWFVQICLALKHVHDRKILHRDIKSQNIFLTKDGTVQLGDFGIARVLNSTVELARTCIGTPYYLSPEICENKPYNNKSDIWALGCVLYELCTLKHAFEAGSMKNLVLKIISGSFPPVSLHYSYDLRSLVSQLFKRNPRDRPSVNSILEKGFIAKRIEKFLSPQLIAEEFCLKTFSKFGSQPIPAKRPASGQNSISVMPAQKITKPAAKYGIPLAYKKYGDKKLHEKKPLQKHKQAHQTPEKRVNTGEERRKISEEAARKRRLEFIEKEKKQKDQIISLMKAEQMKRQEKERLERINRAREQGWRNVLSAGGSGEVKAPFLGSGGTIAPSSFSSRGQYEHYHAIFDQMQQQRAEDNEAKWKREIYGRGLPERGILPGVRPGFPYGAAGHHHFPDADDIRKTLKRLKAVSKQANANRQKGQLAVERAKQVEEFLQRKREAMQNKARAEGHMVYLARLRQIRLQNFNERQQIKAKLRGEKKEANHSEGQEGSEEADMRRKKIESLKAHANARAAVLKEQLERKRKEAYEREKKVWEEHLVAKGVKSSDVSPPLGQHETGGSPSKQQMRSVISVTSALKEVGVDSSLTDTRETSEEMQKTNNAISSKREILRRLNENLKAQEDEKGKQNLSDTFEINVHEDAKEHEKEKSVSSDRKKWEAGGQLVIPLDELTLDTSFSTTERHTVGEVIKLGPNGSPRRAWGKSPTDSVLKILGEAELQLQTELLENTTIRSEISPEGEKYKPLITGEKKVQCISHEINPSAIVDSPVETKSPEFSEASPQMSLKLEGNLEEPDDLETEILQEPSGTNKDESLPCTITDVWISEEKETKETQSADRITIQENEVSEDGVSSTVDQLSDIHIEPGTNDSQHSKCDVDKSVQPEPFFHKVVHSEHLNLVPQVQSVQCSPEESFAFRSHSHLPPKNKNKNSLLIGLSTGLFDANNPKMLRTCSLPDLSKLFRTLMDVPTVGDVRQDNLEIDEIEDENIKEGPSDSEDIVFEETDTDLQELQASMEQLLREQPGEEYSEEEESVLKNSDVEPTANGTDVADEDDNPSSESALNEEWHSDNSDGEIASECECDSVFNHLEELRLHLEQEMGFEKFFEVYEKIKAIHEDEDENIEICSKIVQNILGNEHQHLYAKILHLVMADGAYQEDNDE

[4] = biological target: T4, panel of 374 wild-type kinases (Homo sapiens, UniProt P41743); settings: read-out: % Enzyme Activity (relative to DMSO controls), kinase PKCiota
T4 construct: purchased Reaction Biology Corporation
T4 sequence (P41743 1-596): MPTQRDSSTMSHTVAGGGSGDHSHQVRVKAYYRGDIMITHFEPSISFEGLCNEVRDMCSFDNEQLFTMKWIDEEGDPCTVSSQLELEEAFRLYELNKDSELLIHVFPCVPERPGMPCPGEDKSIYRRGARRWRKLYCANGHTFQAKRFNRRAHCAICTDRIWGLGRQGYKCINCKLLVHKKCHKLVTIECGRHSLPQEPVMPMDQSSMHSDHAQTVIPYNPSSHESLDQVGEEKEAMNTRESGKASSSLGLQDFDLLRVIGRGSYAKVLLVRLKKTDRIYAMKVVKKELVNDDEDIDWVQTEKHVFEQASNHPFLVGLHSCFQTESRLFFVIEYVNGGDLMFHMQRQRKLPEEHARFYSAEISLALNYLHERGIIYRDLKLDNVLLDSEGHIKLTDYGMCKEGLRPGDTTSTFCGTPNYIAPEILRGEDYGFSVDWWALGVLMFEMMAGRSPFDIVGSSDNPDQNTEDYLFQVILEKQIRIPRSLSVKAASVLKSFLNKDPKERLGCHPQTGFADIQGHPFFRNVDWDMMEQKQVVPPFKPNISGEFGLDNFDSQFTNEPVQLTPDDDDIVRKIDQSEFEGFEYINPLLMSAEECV

[5] = biological target: T5, panel of 374 wild-type kinases (Homo sapiens, UniProt P00533); settings: read-out: % Enzyme Activity (relative to DMSO controls), EGFR
T5 construct: purchased Reaction Biology Corporation
T5 sequence (P00533 25-1210): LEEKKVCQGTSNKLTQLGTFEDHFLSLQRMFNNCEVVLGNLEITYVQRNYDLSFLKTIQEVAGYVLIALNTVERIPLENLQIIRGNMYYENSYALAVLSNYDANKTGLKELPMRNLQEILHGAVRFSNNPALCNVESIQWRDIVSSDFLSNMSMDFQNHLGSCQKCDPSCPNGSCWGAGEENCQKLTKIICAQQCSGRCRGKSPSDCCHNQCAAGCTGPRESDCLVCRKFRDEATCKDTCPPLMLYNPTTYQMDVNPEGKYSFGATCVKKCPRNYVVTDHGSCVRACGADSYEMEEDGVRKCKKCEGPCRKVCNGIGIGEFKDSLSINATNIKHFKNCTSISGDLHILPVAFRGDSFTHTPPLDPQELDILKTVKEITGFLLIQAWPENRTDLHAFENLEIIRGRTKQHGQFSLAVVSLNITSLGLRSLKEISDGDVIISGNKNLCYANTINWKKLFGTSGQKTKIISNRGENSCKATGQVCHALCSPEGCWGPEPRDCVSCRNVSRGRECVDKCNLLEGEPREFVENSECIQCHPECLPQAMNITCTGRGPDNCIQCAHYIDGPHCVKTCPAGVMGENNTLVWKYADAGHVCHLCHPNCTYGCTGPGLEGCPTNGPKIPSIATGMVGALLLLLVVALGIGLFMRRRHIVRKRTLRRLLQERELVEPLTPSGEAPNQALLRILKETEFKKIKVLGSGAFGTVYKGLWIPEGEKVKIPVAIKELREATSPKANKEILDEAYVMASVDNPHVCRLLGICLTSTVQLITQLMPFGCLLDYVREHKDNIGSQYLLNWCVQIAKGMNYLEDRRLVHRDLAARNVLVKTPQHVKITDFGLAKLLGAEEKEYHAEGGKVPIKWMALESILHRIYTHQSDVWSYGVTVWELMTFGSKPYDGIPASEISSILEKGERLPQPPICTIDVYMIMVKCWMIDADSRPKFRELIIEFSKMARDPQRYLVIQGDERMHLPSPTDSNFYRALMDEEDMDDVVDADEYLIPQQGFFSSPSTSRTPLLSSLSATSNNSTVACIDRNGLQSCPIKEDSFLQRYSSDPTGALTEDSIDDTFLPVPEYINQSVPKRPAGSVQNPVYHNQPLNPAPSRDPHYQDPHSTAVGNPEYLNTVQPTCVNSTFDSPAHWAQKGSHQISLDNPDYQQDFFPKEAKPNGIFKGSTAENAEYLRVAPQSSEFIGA

T1 sequence (Q5TCX8 whole entry): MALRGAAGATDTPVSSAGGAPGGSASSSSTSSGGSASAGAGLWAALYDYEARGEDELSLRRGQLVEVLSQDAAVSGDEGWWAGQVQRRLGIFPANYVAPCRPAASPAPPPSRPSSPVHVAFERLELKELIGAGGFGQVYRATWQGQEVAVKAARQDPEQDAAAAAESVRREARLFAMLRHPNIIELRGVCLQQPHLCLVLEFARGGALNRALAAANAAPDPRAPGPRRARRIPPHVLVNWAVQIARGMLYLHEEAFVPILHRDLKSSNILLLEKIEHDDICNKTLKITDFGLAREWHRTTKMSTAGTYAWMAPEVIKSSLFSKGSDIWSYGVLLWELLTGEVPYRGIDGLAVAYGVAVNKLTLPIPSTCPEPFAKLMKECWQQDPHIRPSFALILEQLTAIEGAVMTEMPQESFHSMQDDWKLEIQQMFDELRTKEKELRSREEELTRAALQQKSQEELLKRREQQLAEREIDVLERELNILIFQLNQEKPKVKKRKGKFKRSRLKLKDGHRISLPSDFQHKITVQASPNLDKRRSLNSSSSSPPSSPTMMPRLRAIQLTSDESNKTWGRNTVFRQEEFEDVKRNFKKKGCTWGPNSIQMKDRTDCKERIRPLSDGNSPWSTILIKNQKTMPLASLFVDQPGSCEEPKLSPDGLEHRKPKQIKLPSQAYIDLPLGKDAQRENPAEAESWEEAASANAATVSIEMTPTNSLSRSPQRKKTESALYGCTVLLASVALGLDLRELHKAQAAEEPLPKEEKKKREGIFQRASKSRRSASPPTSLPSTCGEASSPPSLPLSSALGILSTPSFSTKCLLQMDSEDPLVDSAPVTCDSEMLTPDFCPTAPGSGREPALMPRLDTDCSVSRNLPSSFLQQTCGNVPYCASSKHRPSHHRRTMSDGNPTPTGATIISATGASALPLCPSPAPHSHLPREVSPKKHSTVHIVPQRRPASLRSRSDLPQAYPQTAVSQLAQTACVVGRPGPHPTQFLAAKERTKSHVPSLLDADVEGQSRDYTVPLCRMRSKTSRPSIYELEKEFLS

Molecule `O=C(Nc1cnn(-c2csc(C(=O)NC3COC3)c2)c1)Nc1ccccc1Cl` [Compound 17, 4-(4-(3-(2-chlorophenyl)ureido)-1H-pyrazol-1-yl)-N-(oxetan-3-yl)thiophene-2-carboxamide] has a remaining activity at 5 µM [1] of 93.2%, a remaining activity at 5 µM [2] of 96.4% and a remaining activity at 5 µM [3] of 115%. For the same molecule, the remaining activity at 5 µM [4] was 95.5% and the remaining activity at 5 µM [5] was 99.7%.
`Cc1sc(C(=O)NC2COC2)cc1-n1cc(NC(=O)Nc2c(F)cccc2Cl)cn1` [Compound 27, 4-(4-(3-(2-chloro-6-fluorophenyl)ureido)-1H-pyrazol-1-yl)-5-methyl-N-(oxetan-3-yl)thiophene-2-carboxamide] showed a remaining activity at 10 µM ([1]; 10 uM) of 85.2%, a remaining activity at 10 µM ([2]; 10 uM) of 86.4% and a remaining activity at 10 µM ([3]; 10 uM) of 90.4%. For the same molecule, the remaining activity at 10 µM ([4]; 10 uM) was 90.8% and the remaining activity at 10 µM ([5]; 10 uM) was 98.5%.
`O=C(Nc1cnn(-c2csc(C(=O)NC3COC3)c2)c1)Nc1c(F)cccc1Cl` [Compound 25, 4-(4-(3-(2-chloro-6-fluorophenyl)ureido)-1H-pyrazol-1-yl)-N-(oxetan-3-yl)thiophene-2-carboxamide] gave a remaining activity at 5 µM [1] of 94.3%, a remaining activity at 5 µM [2] of 94.4% and a remaining activity at 5 µM [3] of 77.2%. It also gave a remaining activity at 5 µM [4] of 87.4% and a remaining activity at 5 µM [5] of 89.4%.
